According to patent US20260216116A1, “QUATERNARY AMMONIUM COMPOUNDS (QACS) AND PROCESS FOR PREPARATION THEREOF” (priority 2023, published 2026):

Experiment: Dissociation of 1 carboxy N—N—N trimethylmethanaminium benzoate in buffer solutions
Type: physicochemical
Procedure: Sample Preparation: 750 mg sample was dissolved in 250 mL of respective buffer solution and kept in orbital shaker at 37° C. for 30 minutes, 1 hour and 2 hours in separate flask. […]

[1] = pH 1.2 (0.1N HCl), 1 Hours, 37° C.
[2] = pH 1.2 (0.1N HCl), 2 Hours, 37° C.
[3] = pH 1.2 (0.1N HCl), 30 Minutes, 37° C.
[4] = pH 1.2 (0.1N HCl), Initial, 750 mg in 250 mL, 37° C.
[5] = pH 6.8 (Phosphate Buffer), 1 Hours, 37° C.
[6] = pH 6.8 (Phosphate Buffer), 2 Hours, 37° C.
[7] = pH 6.8 (Phosphate Buffer), 30 Minutes, 37° C.
[8] = pH 6.8 (Phosphate Buffer), Initial
[9] = pH 6.8 (Phosphate Buffer), Initial, 750 mg in 250 mL, 37° C.

C[N+](C)(C)CC(=O)O.O=C([O-])c1ccccc1 [1-carboxy-N—N—N-trimethylmethanaminium benzoate]
Dissociation (1.2 pH): completely dissociated | Dissociation (6.8 pH): completely dissociated | Concentration in %: 1 carboxy N-N-N trimethylmethanaminium, % (Control): 70% | Concentration in %: Benzoic acid, % (Control): 36% | %, Dissociation of 1 carboxy N-N-N trimethylmethanaminium [1]: 100% | %, Dissociation of Benzoic acid [1]: 115% | Concentration in %: 1 carboxy N-N-N trimethylmethanaminium, % [1]: 69% | Concentration in %: Benzoic acid, % [1]: 41% | %, Dissociation of 1 carboxy N-N-N trimethylmethanaminium [2]: 100% | %, Dissociation of Benzoic acid [2]: 114% | Concentration in %: 1 carboxy N-N-N trimethylmethanaminium, % [2]: 70% | Concentration in %: Benzoic acid, % [2]: 41% | %, Dissociation of 1 carboxy N-N-N trimethylmethanaminium [3]: 98% | %, Dissociation of Benzoic acid [3]: 115% | Concentration in %: 1 carboxy N-N-N trimethylmethanaminium, % [3]: 68% | Concentration in %: Benzoic acid, % [3]: 41% | %, Dissociation of 1 carboxy N-N-N trimethylmethanaminium (pH 1.2 (0.1N HCl), Initial): 97% | %, Dissociation of Benzoic acid (pH 1.2 (0.1N HCl), Initial): 94% | Concentration in %: 1 carboxy N-N-N trimethylmethanaminium, % [4]: 67% | Concentration in %: Benzoic acid, % [4]: 34% | %, Dissociation of 1 carboxy N-N-N trimethylmethanaminium [5]: 97% | %, Dissociation of Benzoic acid [5]: 109% | Concentration in %: 1 carboxy N-N-N trimethylmethanaminium, % [5]: 70% | Concentration in %: Benzoic acid, % [5]: 40% | %, Dissociation of 1 carboxy N-N-N trimethylmethanaminium [6]: 99% | %, Dissociation of Benzoic acid [6]: 108% | Concentration in %: 1 carboxy N-N-N trimethylmethanaminium, % [6]: 71% | Concentration in %: Benzoic acid, % [6]: 40% | %, Dissociation of 1 carboxy N-N-N trimethylmethanaminium [7]: 98% | %, Dissociation of Benzoic acid [7]: 109% | Concentration in %: 1 carboxy N-N-N trimethylmethanaminium, % [7]: 71% | Concentration in %: Benzoic acid, % [7]: 40% | %, Dissociation of 1 carboxy N-N-N trimethylmethanaminium [8]: 96% | %, Dissociation of Benzoic acid [8]: 97% | Concentration in %: 1 carboxy N-N-N trimethylmethanaminium, % [9]: 69% | Concentration in %: Benzoic acid, % [9]: 36%
